Data taken from US6780641B2, “Immortalized human microglia cell line” (University of British Columbia, priority 2000, dated 2004).
“Also recorded” adds a separate entry of the source.

Assays:
HMO6.A1 cells [1] = assay: Fura-2 Ca2+ fluorescence in HMO6.A1 cells; type: cell-based, human; conditions: ATP 100 μM; ionomycin 10 μM after ATP perfusion; n=7 cells
Procedure: The cultured HMO6.Al cells were loaded for 25 min with the Ca^2+ indicator fura-2-acetoxymetethylester (fura-2AM). The dye was applied with pleuronic acid (both at concentrations of 1 μM) to normal physiological solution (PSS) at room temperature (20-22° C.). Following a 5 min wash in dye-free solution, the coverslips were placed on the stage of a Zeiss Axiovert inverted microscope containing a ×40 quartz objective lens. Alternating excitation wavelengths (340/380 nm) of UV light were applied at intervals of 8 s and fluorescence signals were obtained at 510 nm of emission light (bandwidth of 4 nm) from 8-20 cells in the field of view. Signals were acquired from a digital camera (DVC-1310, DVC Co., Austin, Tex.) and were processed using an imaging system (Empix, Mississauga, ON) to determine ratios of the 340 nm and 380 nm intensities which have been used as quantitative measures of fluorescence levels in this work.
All studies were done at room temperature (20-22° C.) and values obtained from multiple cells are reported as mean ±SEM with statistical significance for p≦0.05 using the Student's t-test.
The purinergic agonist ATP (at 100 μM) was applied to HMO6.A1 cells using calcium sensitive fluorescence microscopy. The results from a representative experiment are presented by FIGS. 3A and 3B which show an ATP-induced increase in [Ca^2+]i from n=7 cells. […]

HMO6.A1 cells [2] = assay: RT-PCR analysis of gene expression in agent stimulated HMO6.A1 cells; type: cell-based, human; conditions: for P2Y2 receptor expression / B7-2 mRNA expression: HMO6.A1, RT-PCR; for B7-2 mRNA expression: 24 hr incubation; for Stimulated HMO6 cell expressed active substance(s): RT-PCR, agent stimulated HMO6 cells
Text: The information of Table E1 is provided merely as a convenience to the reader and utilizes conventional gene sequences.
Sense and antisense primers of each primer pair given by Table E1 were set at a different exon, respectively, to avoid DNA contamination. To assess the character of HMO6.A1 cells, the expression of cytokines (IL-1β, -2, -3, -4, -5, -6, -7, -8, -9, -10, -11, -12, -13, -15, and TNF-α), chemokines (macrophage inflammatory protein (MIP)-1α, MIP-1β, and monocyte chemoattractant protein (MCP)-1) was examined by RT-PCR. Total RNA was extracted using Trizol reagent (GIBCO-BRL, Gaithersburg, Md.). Complimentary DNA (cDNA) templates from each sample were prepared from 2 μg of total RNA primed with oligo dT primers (Pharmacia, Gaithersburg, Md.) using 400 units of MMLV reverse transcriptase (GIBCO-BRL) followed by 25 PCR amplification cycles (94° C. for 30 seconds, annealing at 60° C. for 60 seconds, and extension at 72° C. for 90 seconds). This cycle number allowed a linear cDNA dose-response. Glyceraldehyde-3-phosphate dehydrogenase (G3PDH) was used as a reaction standard [Ercolani et al., J. Biol. Chem. 263: 15335-15341 ([…])].
To confirm the purity of cell preparation, cDNA from microglia-enriched cultures were amplified for B7-2 (CD86, for microglia); GFAP (a cell type-specific marker for astrocytes); myelin basic protein (MBP, for oligodendrocytes); and neurofilament-M (NF-M, for neurons). For characterization of HMO6.A1 cells, mRNA expression of marker proteins specific for each cell type was also investigated. Gene expression of CD68, P2Y1 purinergic receptor (P2Y1R), P2Y2R, CXCR4 which are expressed in embryonic human microglia (HM) was also examined in HMO6.A1 cells. […] of each PCR product was analyzed by 1.5% agarose gel electrophoresis. Authentic bands were determined by selective enzyme digestion.
[…] LPS at 100 ng/ml was used in microglial cultures since LPS is a potent activator of microglia [Gebicke-Haeter et al., J. Neurosci. 9: 187-194 (1989); Suzumura et al., Brain Res. 545: 301-306 (1991)].

[3] = system: embryonic human microglia; assay: GM-CSF stimulated proliferation of embryonic human microglia; type: cell-based; conditions: GM-CSF 8 μg/ml for 9-12 days
Procedure: It is also desirable that, for the last part of this time, microglia are exposed to granulocyte macrophage colony stimulating factor (GM-CSF) at final concentration of 8 ug/ml for 9-12 days with a medium change every 3 days. GM-CSF treatment stimulated proliferation of microglia results in a 3-4 fold increase in microglial population.
As illustrated by FIG. 1, an amphotropic replication-incompetent retroviral vector encoding v-myc oncogene (transcribed from mouse leukemia virus LTR plus neomycin-resistant gene transcribed from a SV40 early promotor) was used to infect human microglia inducing propagation of immortalized human microglial cell lines. This amphotropic vector, PASK 1.2, was generated using the ecotropic retroviral vector encoding v-myc (obtained from the American Type Culture Collection, Rockville, Md.) to infect PA318 amphotropic packaging cell line. Microglia were exposed to granulocyte macrophage colony stimulating factor (GM-CSF) at final concentration of 8 μg/ml for 9-12 days with medium change every 3 days. GM-CSF treatment stimulated proliferation of microglia resulting in 3-4 folds increase in population. Microglia treated with GM-CSF for 9-12 days were subjected to retrovirally mediated transduction of v-myc by PASK 1.2 construct and subsequent cloning.

[4] = system: embryonic human microglia (HM); assay: RT-PCR analysis of gene expression in embryonic human microglia (HM) after Aβ25-35/LPS; type: cell-based; conditions: 6 hr
HMO6.A1 cells [5] = assay: ELISA of cytokines/chemokines released from HMO6.A1 cells; type: cell-based, human; conditions: for MIP-1α amount of release / levels of IL-8 in the supernatant: HMO6.A1, 48 hours; for levels of IL-8 in the supernatant: versus non-treated controls
Procedure: (§1) Production of TNF-α, IL-1β, IL-6, IL-8 or MIP-1α in normal human microglial cells or HMO6.A1 cells was determined in spent culture supernatants using ELISA kits specific for human TNF-α, IL-1β, IL-6, IL-8 or MIP-1α (R&D Systems, capable of detecting TNF-α at 4.4 pg/ml, IL-1β at 1 pg/ml, IL-6 at 0.70 pg/ml, IL-8 at 10 pg/ml and MIP-1α at 10 pg/ml). At the end of each experiment, culture supernatants were collected, centrifuged, and stored at −70° C.
(§2) FIGS. 6A-6E are graphs presenting ELISA analyses of cytokines and chemokines released from normal human microglia and HMO6 immortalized human microglia cell line. Cells were plated in 6-well plates, stimulated for 48 hours with or without 20 ug/ml β-amyloid or 10 ng/ml LPS, and then cytokine/chemokine production in spent media was measured. Values represent mean±SEM from 3 experiments.

[6] = system: normal human microglial cells; assay: ELISA of cytokines/chemokines released from normal human microglia (HM); type: cell-based; conditions: for IL-6 levels in the culture supernatant: cell type (HM or HMO6.A1) not given; for levels of IL-8 in the supernatant: versus non-treated controls
Procedure: as §1, §2

[7] = HMO6, treatment time not stated

In the case of `Nc1ncnc2c1ncn2[C@@H]1O[C@H](COP(=O)(O)OP(=O)(O)OP(=O)(O)O)[C@@H](O)[C@H]1O` [ATP], the “[Ca2+]i response” value (HMO6.A1 cells [1]) is reported as “increase; also recorded: rapid and transient”.

In the case of `C[C@H](CCC(=O)O)C[C@H](C)C[C@H](C)C(=O)/C=C(\O)[C@H](C)C[C@H](C)C/C=C/[C@@H](C)[C@@H](O)[C@@H](C)[C@@H](O)C[C@@H]1CC[C@@](C)([C@H]2CC[C@@](C)([C@@H](C)O)O2)O1` [ionomycin], the “[Ca2+]i response” value (HMO6.A1 cells [1]) is reported as “considerably larger than the ATP-induced response”.

In the case of “GM-CSF: granulocyte-macrophage colony-stimulating factor (GIBCO-BRL)”, the P2Y2 receptor expression (HMO6.A1 cells [2]) is reported as “expressed”, the “B7-2 mRNA expression” value (HMO6.A1 cells [2]) is reported as “not” and the “increase in microglial population” value [3] is reported as 3-4 fold.

For “IL-1β: Recombinant human IL-1β (10 ng/ml, R&D Systems)”, the P2Y2 receptor expression (HMO6.A1 cells [2]) was “expressed”, the “B7-2 mRNA expression” value (HMO6.A1 cells [2]) was “not” and the “Stimulated HMO6 cell expressed active substance(s)” value (“Stimulated HMO6 cell” below) (HMO6.A1 cells [2]) was “None”.

In the case of “NH2-GSNKGAIIGLM-COOH (H-GSNKGAIIGLM-OH) [Aβ25-35]”, the CXCR4 expression (HMO6.A1 cells [2]; HMO6.A1, 6 hr) is reported as “increased”, the IL-1β expression (HMO6.A1 cells [2]; HMO6.A1, 6 hr) is reported as “no change” and the IL-6 expression (HMO6.A1 cells [2]; HMO6.A1, 6 hr) is reported as “no change”. The “IL-8 mRNA expression” value (HMO6.A1 cells [2]; HMO6.A1, 6 hr) was “elevated”, the IL-10 expression (HMO6.A1 cells [2]; HMO6.A1, 6 hr) was “not detected” and the IL-12 expression (HMO6.A1 cells [2]; HMO6.A1, 6 hr) was “elevated”. The “MCP mRNA expression” value (HMO6.A1 cells [2]; HMO6.A1, 6 hr) was “elevated”, the “MIP-1α mRNA expression” value (HMO6.A1 cells [2]; HMO6.A1, 6 hr) was “not expressed” and the MIP-1β expression (HMO6.A1 cells [2]; HMO6.A1, 6 hr) was “No change”. For the same molecule, the TNF-α expression (HMO6.A1 cells [2]; HMO6.A1, 6 hr incubation) was “not induced”, the TNF-α expression (HMO6.A1 cells [2]; HMO6.A1, after 24 hr) was “induced” and the TNF-α expression (HMO6.A1 cells [2]; HMO6.A1, after 24 hr, listed as Aβ) was “detected; also recorded: induced”. The “Stimulated HMO6 cell” value (HMO6.A1 cells [2]; Elevated IL-12 expression) was “Elevated IL-12”, the “Stimulated HMO6 cell” value (HMO6.A1 cells [2]; TNF-α expression) was “TNF-α” and the IL-1β expression [4] was “slightly increased”. For the same molecule, the IL-4 expression [4] was “not recognized”, the “IL-8 mRNA” value [4] was “up-regulated” and the IL-10 expression [4] was “increased”. For the same molecule, the IL-12 expression [4] was “elevated”, the IL-13 expression [4] was “not recognized” and the “MCP mRNA” value [4] was “up-regulated”. The “MIP-1α mRNA” value [4] was “up-regulated”, the “MIP-1β mRNA” value [4] was “up-regulated” and the TNF-α expression [4] was “markedly elevated”. For the same molecule, the “MIP-1α amount of release” value (HMO6.A1 cells [5]) was “very low”, the “TNF-α production (ELISA)” value (HMO6.A1 cells [5]; HMO6.A1, 48 hours stimulation, spent media) was “marked increase” and the “levels of IL-8 in the supernatant” value (HMO6.A1 cells [5]) was “greater”. For the same molecule, the “IL-6 levels in the culture supernatant” value ([6]; 48 hours stimulation) was “not increased”, the MIP-1α levels ([6]; HM, 48 hours) was “elevated” and the “release of IL-1β into culture medium” value ([6]; HM, 48 hours stimulation) was “demonstrated”. The “TNF-α production (ELISA)” value ([6]; HM, 48 hours stimulation, spent media) was “marked increase” and the “levels of IL-8 in the supernatant” value ([6]; HM, 48 hours) was “greater”.

In the case of TNF-α, the “Expression of MIP-1α” value (HMO6.A1 cells [2]; [7]) is reported as “newly induced”, the “Expression of TNF-α” value (HMO6.A1 cells [2]; [7]) is reported as “newly induced” and the MIP-1α expression (HMO6.A1 cells [2]; HMO6.A1, 24 hr treatment) is reported as “detected; also recorded: induced”. The P2Y2 receptor expression (HMO6.A1 cells [2]) was “induced; also recorded: expressed”, the “B7-2 mRNA expression” value (HMO6.A1 cells [2]) was “induced; also recorded: expressed” and the TNF-α gene expression (HMO6.A1 cells [2]; HMO6.A1, treatment for 4 hr) was “recognized; also recorded: induced”. For the same molecule, the “Stimulated HMO6 cell” value (HMO6.A1 cells [2]; MIP-1α expression) was “MIP-1α” and the “Stimulated HMO6 cell” value (HMO6.A1 cells [2]; TNF-α expression) was “TNF-α”.

For lipopolysaccharide [LPS], the CXCR4 expression (HMO6.A1 cells [2]; HMO6.A1, 6 hr) was “increased”, the TNF-α expression (HMO6.A1 cells [2]; HMO6.A1, 6 hr incubation) was “not induced” and the P2Y2 receptor expression (HMO6.A1 cells [2]) was “expressed”. For the same molecule, the “B7-2 mRNA expression” value (HMO6.A1 cells [2]) was “not”, the TNF-α expression (HMO6.A1 cells [2]; HMO6.A1, after 24 hr) was “induced” and the “MIP-1α amount of release” value (HMO6.A1 cells [5]) was “very low”. For the same molecule, the “levels of IL-8 in the supernatant” value (HMO6.A1 cells [5]) was “greater”, the “IL-6 levels in the culture supernatant” value ([6]; 48 hours stimulation) was “increased” and the “release of IL-1β into culture medium” value ([6]; HM, 48 hours stimulation) was “demonstrated”. For the same molecule, the “levels of IL-8 in the supernatant” value ([6]; HM, 48 hours) was “greater”.

B1: IFN-γ: recombinant human IFN-γ (500 IU/ml, LG Chem) (protein, UniProt P01579 24-161, looked up)
Interferon gamma: QDPYVKEAENLKKYFNAGHSDVADNGTLFLGILKNWKEESDRKIMQSQIVSFYFKLFKNFKDDQSIQKSVETIKEDMNVKFFNSNKKKRDDFEKLTNYSVTDLNVQRKAIHELIQVMAELSPAAKTGKRKRSQMLFRG
B1 was tested, and the P2Y2 receptor expression (HMO6.A1 cells [2]) was “expressed” and the “B7-2 mRNA expression” value (HMO6.A1 cells [2]) was “not”.
